Common to all, as to assay: DTP human tumour cell line panel, 48 h
In assay [1] the test system is SF-539.
The subject of assay [2] is PC-3.
In assay [3] the test system is BT-549.
The test system of assay [4] is UO-31.
In assay [5] the test system is Malme-3M.
Assay [6] has as its system OVCAR-4.
For assay [7], the system named is HOP-92.
For assay [8], the system named is NCI-H460.
The test system of assay [9] is TK-10.
Assay [10] concerns SK-OV-3.
Assay [11] concerns ACHN.
For assay [12], the system named is HCT-15.
Assay [13] has as its system SK-MEL-2.
The subject of assay [14] is M14.
Assay [15] relates to K562.
The test system of assay [16] is KM12.
For assay [17], the system named is SF-295.
The test system of assay [18] is EKVX.

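Growth conditions: 96-well plates. Treatment: test compound, 48 hours, 5 concentrations. Analysis: linear interpolation between bracketing concentrations; unreached endpoints set to highest concentration. Here, GI50 denotes the concentration required for 50% inhibition of growth.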 The source made the active and inactive calls. Rule as the data show it: active = GI50 up to about 1.1 µM and inactive = higher.

As usually defined, the GI50 is the concentration giving 50% growth inhibition. Regarding `O=C(/C=C/c1ccccc1)CCN1CCCCC1`, the GI50 was 17.8 µM (inactive) in [1]; 52.7 µM (inactive) in [2]; 47.1 µM (inactive) in assay [3]; 34.9 µM (inactive) in assay [4]; > 100 µM (inactive) in assay [5]; 53 µM (inactive) in assay [6]. For the same compound, the GI50 in assay [7] was > 100 µM (inactive); in [8] it was 40.7 µM (inactive); in assay [9], 51.3 µM (inactive); in assay [10] it was 75 µM (inactive); in [11], 84.7 µM (inactive); in assay [12], 22.6 µM. Further, the GI50 in assay [13] is > 100 µM (inactive); in [14], 17.5 µM (inactive); in [15], 40.1 µM (inactive); in assay [16], 28.5 µM (inactive); in assay [17], 99.5 µM (inactive); in [18], > 100 µM (inactive).

On to `Cc1ccc2[nH]c3c(c2c1)CCC/C3=N/N=C(N)N`, for which the GI50 in assay [1] is 1.62 µM (inactive); in [2], 2.64 µM (inactive); in assay [3] it was 14.5 µM (inactive); in [4], 1.95 µM (inactive); in assay [5], 2.11 µM (inactive); in [6] it was 2.76 µM (inactive). In addition, the GI50 in assay [7] was 2.33 µM (inactive); in [8], 1.4 µM (inactive); in assay [10], 19.1 µM (inactive); in assay [11] it was 1.89 µM (inactive); in assay [13], 1.69 µM (inactive); in assay [14], 1.57 µM (inactive). Further, the GI50 was 2.08 µM (inactive) in assay [15], 1.63 µM (inactive) in assay [16], 1.65 µM (inactive) in assay [17] and 1.92 µM (inactive) in [18].

As to `O=c1cc(N2CCCC2)[nH]c(=O)n1-c1ccc(Cl)cc1`, the GI50 in [1], in [2], in [3], in assay [5], in [6] and in assay [7] was > 100 µM (inactive) throughout. For the same compound, the GI50 in assay [8] is > 100 µM (inactive); in assay [9] it was > 100 µM (inactive); in assay [10], > 100 µM (inactive); in assay [11], > 100 µM (inactive); in assay [12] it was above 100 µM; in assay [13], > 100 µM (inactive). The GI50 in [14], in assay [15], in assay [16], in [17] and in assay [18] was > 100 µM (inactive) each time.

In the case of `CC(C)(C)OC(=O)NNCC(O)COc1ccccc1` (stereo not given), the GI50 in assay [1], in [2], in assay [3], in assay [4], in assay [5] and in assay [6] was > 100 µM (inactive) in each case. Further, the GI50 in assay [7] was > 100 µM (inactive); in assay [8], > 100 µM (inactive); in assay [9] it was > 100 µM (inactive); in [10], > 100 µM (inactive); in assay [11] it was > 100 µM (inactive); in assay [12], above 100 µM. In addition, the GI50 in assay [13], in assay [14], in assay [15], in [17] and in assay [18] was > 100 µM (inactive) each time.

For `CC[C@@]1(O)C(=O)OCc2c1cc1n(c2=O)Cc2c-1nc1ccc(O)cc1c2[Si](C)(C)C(C)(C)C` [AR-67], the GI50 was < 0.01 µM (active) in assay [1]; < 0.0208 µM (active) in assay [2]; < 0.0157 µM (active) in assay [3]; < 0.01 µM (active) in [4]; < 0.01 µM (active) in [5]; 0.0282 µM (active) in assay [6]. In addition, the 50% growth inhibitory concentration (GI50) in assay [7] was 0.0132 µM (active); in assay [8], < 0.01 µM (active); in [9], 0.443 µM (active); in [10], 0.557 µM (active); in assay [11], < 0.01 µM (active); in assay [12] it was 0.122 µM. The GI50 in assay [13] is 0.125 µM (active); in assay [14], < 0.01 µM (active); in assay [15] it was < 0.0219 µM (active); in [16], 0.024 µM (active); in assay [18], 0.333 µM (active).

Source of the values: ChEMBL document CHEMBL1201862, “PubChem BioAssay data set” (2004).
